Assay results from patent publication US11377451B2, “Compositions and methods for treating cancer” (The Regents of the University of California, priority 2019, dated 2022).
Where two headings read alike, the source gives them in different places. Blank lines part the entries; values can stand above or below the molecule they belong to.

Experiments:
[1] = system: patient-derived GBM gliomaspheres; assay: Dynamic BH3 profiling (apoptotic priming, cytochrome c release); format: cell-based, human; details: HK393 and HK254 (EGFRi non-responders), 24 hours
Experimental: GBM gliomaspheres were first disassociated to single-cell suspensions with TrypLE (Gibco) and resuspended in MEB buffer (150 mM Mannitol 10 mM HEPES-KOH, 50 mM KCl, 0.02 mM EGTA, 0.02 mM EDTA, 0.1% BSA, 5 mM Succinate). 50 μl of cell suspension (3×10^4 cells/well) were plated in wells holding 50 μL MEB buffer containing 0.002% digitonin and indicated peptides in 96-well plates. Plates were then incubated at 25° C. for 50 min. […] Samples were stained overnight with 20 μL of staining solution (10% BSA, 2% Tween 20 in PBS) containing DAPI and anti-cytochrome c (BioLegend). The following day, cytochrome c release was quantified using BD LSRII flow cytometer. […] Delta priming refers to the difference in amount of cytochrome c release between vehicle treated cells and drug treated cells.

[2] = system: patient-derived GBM gliomaspheres; assay: Annexin V apoptosis assay; format: cell-based, human; details: for apoptosis (annexin V staining): 72 hours of erlotinib exposure, 1 μM
Experimental: Cells were collected and analyzed for Annexin V and PI staining according to manufacturer's protocol (BD Biosciences). Briefly, cells were plated at 5×10^4 cells/ml and treated with appropriate drugs. Following indicated time points, cells were collected, trypsinized, washed with PBS, and stained with Annexin V and PI for 15 minutes. Samples were then analyzed using the BD LSRII flow cytometer.
Annexin V staining was measured following 72 hrs of treatment. Using the Chalice software, the response of the combination was compared to its single agents. The combinatorial effects were calculated using the synergy score.

[3] = system: BIM, PUMA; PI3K-AKT-mTOR signaling; assay: Immunoblotting; format: cell-based, human
Experimental: Cells were collected and lysed in RIPA buffer (Boston BioProducts) containing Halt Protease and Phosphatase Inhibitor (Thermo Fischer Scientific). Lysates were centrifuged at 14,000×g for 15 min at 4° C. […] Membranes were developed using the SuperSignal system (Thermo Fischer Scientific).

[4] = system: patient-derived GBM gliomaspheres; assay: 18F-FDG uptake assay; format: cell-based, human; details: 4 hours
Experimental: Cells were plated at 5×10^4 cells/ml and treated with designated drugs for indicated time points. Following appropriate treatment, cells were collected and resuspended in glucose-free DMEM/F12 (USBiological) containing ^18F-FDG (radioactivity 1 μCi/mL). Cells were incubated at 37° C. for 1 hr and then washed three times with ice cold PBS. Radioactivity of each sample was then measured using a gamma counter.

[5] = Idasanutlin brain and plasma concentrations by mass spectrometry; format: in vivo; details: male, CD-1, mouse, mice with an intact blood-brain-barrier, 50 mg/kg oral gavage
Experimental: Male CD-1 mice (6-8 weeks old) were treated with 50 mg/kg Idasanutlin in duplicate through oral gavage. At 0.5, 1, 2, 4, 6, 8, 12, and 24 hr after administration, mice were sacrificed, blood was harvested by retro-orbital bleeding, and brain tissue was collected. Whole blood from mice was centrifuged to isolate plasma. Idasanutlin was isolated by liquid-liquid extraction from plasma: 50 μL plasma was added to 2 μL internal standard and 100 μL acetonitrile. Mouse brain tissue was washed with 2 mL cold PBS and homogenized using a tissue homogenizer with fresh 2 mL cold PBS. Idasanutlin was then isolated and reconstituted in a similar manner by liquid-liquid extraction: 100 μL brain homogenate was added to 2 μL internal standard and 200 μL acetonitrile. After vortex mixing, the samples was centrifuged. The supernatant was removed and evaporated by a rotary evaporator and reconstituted in 100 μL 50:50 water: acetonitrile.
Chromatographic separations were performed on a 100×2.1 mm Phenomenex Kinetex C18 column (Kinetex) using the 1290 Infinity LC system (Agilent). The mobile phase was composed of solvent A: 0.1% formic acid in Milli-Q water, and B: 0.1% formic acid in acetonitrile. […] Analyte signal was normalized to the internal standard and concentrations were determined by comparison to the calibration curve (0.5, 5, 50, 250, 500, 2000 nM). […]

p53 = assay: Immunohistochemistry of p53 in orthotopic tumor-bearing mice; format: in vivo; details: 50 mg/kg, 36 hours
Experimental: Immunohistochemistry was performed on 4 μm sections that were cut from FFPE (formalin-fixed, paraffin-embedded) blocks. Sections were then deparaffinised with xylene and rehydrated through graded ethanol. […] Tissue sections were then treated with 3% hydrogen peroxide (LOT 161509; Fisher Chemical) and with Background Sniper (Biocare Medical, Concord, Calif., USA) to reduce nonspecific background staining. Primary antibody for p53 (Cell Signaling, 2527) was applied in a 1:150 dilution for 80 min followed by detection with the MACH 3 Rabbit HRP-Polymer Detection kit (Biocare Medical). Visualization was achieved using VECTOR NovaRED (SK-4800; Vector Laboratories, Inc.) as chromogen. Lastly, sections were counterstained with Tacha's Automated Hematoxylin (Biocare Medical).

HK301 = assay: GI50 assay (Cell Titer Glo proliferation, 3 days); format: cell-based, human; details: Homo sapiens, 72 h
[6] = Protein binding (fraction unbound in blood and brain)
EGFR = molecular target: T1, EGFR (Homo sapiens, UniProt P00533); assay: Cell Free EGFR Kinase Assay (ADP-Glo); format: biochemical; details: FIG. 3
T1 construct: purchased Promega V3831
T1 sequence (P00533 25-1210): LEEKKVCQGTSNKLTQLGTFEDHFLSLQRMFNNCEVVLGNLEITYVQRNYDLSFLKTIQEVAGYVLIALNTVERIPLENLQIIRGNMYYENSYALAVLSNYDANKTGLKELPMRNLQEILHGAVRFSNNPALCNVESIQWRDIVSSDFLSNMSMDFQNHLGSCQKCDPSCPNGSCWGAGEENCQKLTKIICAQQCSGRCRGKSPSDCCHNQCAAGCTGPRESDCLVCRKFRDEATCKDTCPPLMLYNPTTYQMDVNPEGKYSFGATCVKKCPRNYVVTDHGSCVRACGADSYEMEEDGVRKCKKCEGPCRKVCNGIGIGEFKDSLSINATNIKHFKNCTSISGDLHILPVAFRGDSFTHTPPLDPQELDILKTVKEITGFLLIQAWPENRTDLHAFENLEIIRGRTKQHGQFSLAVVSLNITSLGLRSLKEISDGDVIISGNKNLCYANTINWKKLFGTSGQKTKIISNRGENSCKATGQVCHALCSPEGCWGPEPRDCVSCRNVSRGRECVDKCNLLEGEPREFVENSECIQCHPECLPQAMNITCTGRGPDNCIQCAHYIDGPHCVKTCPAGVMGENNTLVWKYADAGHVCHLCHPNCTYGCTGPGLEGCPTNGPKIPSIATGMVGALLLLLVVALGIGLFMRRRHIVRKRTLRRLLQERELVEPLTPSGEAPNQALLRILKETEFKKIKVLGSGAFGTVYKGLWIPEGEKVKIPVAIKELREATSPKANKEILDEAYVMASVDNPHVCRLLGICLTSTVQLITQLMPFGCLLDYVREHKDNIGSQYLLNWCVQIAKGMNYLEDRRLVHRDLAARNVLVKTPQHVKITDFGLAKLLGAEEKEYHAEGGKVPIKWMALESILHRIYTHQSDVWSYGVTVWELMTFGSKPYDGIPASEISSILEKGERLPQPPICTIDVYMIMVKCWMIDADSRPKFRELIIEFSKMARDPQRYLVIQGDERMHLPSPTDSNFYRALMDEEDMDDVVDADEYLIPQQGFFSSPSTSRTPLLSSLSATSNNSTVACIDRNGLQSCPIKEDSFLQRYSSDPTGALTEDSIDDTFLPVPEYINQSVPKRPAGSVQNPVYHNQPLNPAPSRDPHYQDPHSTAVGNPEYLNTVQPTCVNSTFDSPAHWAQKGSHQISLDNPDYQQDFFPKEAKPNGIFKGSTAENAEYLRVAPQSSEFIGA
Experimental: The Cell Free EGFR Kinase Assay was performed using the EGFR Kinase System (Promega #V3831). […] The ADP-Glo Kinase Assay (Promega #V6930) was used to measure EGFR activity in the presence of inhibitors.

[7] = Pharmacokinetic / brain penetration studies in mice; format: in vivo
Experimental: Pharmacokinetic studies were performed on male CD-1 mice aged 8-10 weeks. Mice were dosed as indicated in duplicates. At the time points, whole blood was obtained by retro-orbital bleeding and brain tissue was harvested. Blood samples were centrifuged to obtain plasma and brain tissue was washed and homogenized. Samples were extracted with acetonitrile and supernatant was dried using a speed-vac. Dried samples were solubilized in 50:50:0.1 acetonitrile:water:formic acid and quantified on an Agilent 6400 series Triple Quadrupole LC/MS.
Disclosed in table 5 Brain to plasma percentages and unbound ratios of drugs in brain to plasma of indicated drugs in non-tumor bearing mice

GBM39 = assay: GI50 assay (Cell Titer Glo proliferation, 3 days); format: cell-based, human; details: Homo sapiens, 72 h; GBM39, 3 days
[8] = cited from earlier work
[9] = system: GBM39 and HK393 intracranial xenografts; assay: Intracranial delayed 18F-FDG PET/CT mouse imaging; format: in vivo, mice
Experimental: Following 1 hr unconscious uptake, mice were taken off anesthesia but kept warm for another 5 hr of uptake. 6 hr after the initial administration of ^18F-FDG, mice were imaged using G8 PET/CT scanner (Sofie Biosciences). Per above, quantification was performed by drawing 3D regions of interest (ROI) using the AMIDE software.

gliomas = details: cited from earlier work
[10] = male, CD-1, mouse, Table 4, unbound partition coefficient of the brain and plasma, at equilibrium
[11] = higher dose: Erlotinib 1500 (weekly), Gefitinib 750-1000

SMILES: CS(=O)(=O)N1CCN(Cc2cc3nc(-c4cccc5[nH]ncc45)nc(N4CCOCC4)c3s2)CC1 [pictilisib]
apoptotic priming [1]: significantly higher apoptotic priming
lethality in combination with nutlin [2]: significant, p53-dependent synergistic lethality
PI3K-AKT-mTOR signaling ([3]; HK254 and HK393, 4 hours): abrogated PI3K-AKT-mTOR signaling
18F-FDG uptake ([4]; HK393 and HK254 (EGFRi non-responders), pictilisib 1 μM): significantly reduced

SMILES: COc1cc(C(=O)O)ccc1NC(=O)[C@@H]1N[C@@H](CC(C)(C)C)[C@](C#N)(c2ccc(Cl)cc2F)[C@H]1c1cccc(Cl)c1F [Idasanutlin]
Kp [5]: 0.35
p53 stabilization in tumor (p53): stabilizes p53

SMILES: C#Cc1cccc(Nc2ncnc3cc(OCCOC)c(OCCOC)cc23)c1 [Erlotinib, erlotinib]
GI50 (HK301; read-out: HK301 GI50 (nM)): 642 nM
apoptosis (annexin V staining) ([2]; metabolic responders): ~17%
apoptosis (annexin V staining) ([2]; non-responders): ~3%
Bound (blood) ([6]; blood): 95.12%
fraction unbound ([6]; blood, Fu (blood)): 0.0488
Bound (brain) ([6]; brain): 97.07%
fraction unbound ([6]; brain, Fu (brain)): 0.0293
CSF ([8]; Daily Dose: Afatinib 50, Alectinib 1200, Crizotinib 500, Erlotinib 150, Gefitinib 250, Lapatinib 1250): 28.7 ± 16.8 ng/mL
Plasma ([8]; Daily Dose: Afatinib 50, Crizotinib 500, Erlotinib 150, Gefitinib 250, Lapatinib 1250): 1140 ± 937 ng/mL
CSF [8, 11]: 51.1 ng/mL
Plasma [8, 11]: 4445.9 ng/mL
Kpuu (Avg) ([7]; Table 4, unbound partition coefficient of the brain and plasma, at equilibrium): 0.0513
Kpuu (Avg) ([7]; Table 5, unbound ratios of drugs in brain to plasma, non-tumor bearing mice): 0.051
expression of pro-apoptotic BH3-only proteins BIM and PUMA ([3]; only in the metabolic responder cultures, acute erlotinib treatment): promoted the expression
18F-FDG uptake (PET) ([9]; GBM39 orthotopic xenografts, erlotinib 75 mg/kg, 15 hours post administration): rapidly reduced
18F-FDG uptake (PET) ([9]; HK393 orthotopic xenografts (non-metabolic responder), acute EGFRi): no changes
radio-labeled glucose uptake (18F-FDG) ([4]; metabolic responder GBMs, erlotinib 1 μM): significantly attenuated
response rates against gliomas (gliomas): ≤ 25%

Second part, led by results:

Bound (blood) ([6]; blood): 98.88%
fraction unbound ([6]; blood, Fu (blood)): 0.0112
Bound (brain) ([6]; brain): 98.90%
fraction unbound ([6]; brain, Fu (brain)): 0.011
IC50 (EGFR): ~8 nM
Kp ([7]; male, CD-1, mouse, brain / plasma, non-tumor bearing mice): 1.06
Kp uu [7, 10]: 1.04
SMILES: Fc1c(Cl)cccc1Nc1ncnc2cc3c(cc12)OCCO3 [JGK010]
GI50 (HK301; HK301, 3 days, read-out: HK301 GI50): 780 nM
GI50 (GBM39): 2590 nM

Kp uu [7, 10]: 0.802
fraction unbound (in vitro; Fu (blood)): 0.052
fraction unbound (in vitro; Fu (brain)): 0.0144
SMILES: COc1cc2ncnc(Nc3cccc(Cl)c3F)c2cc1OC(=O)N1CCN(C)C[C@H]1C [AZD3759]
